Measurements from US9663525B2, “Pyrazolopyrimidinyl inhibitors of ubiquitin-activating enzyme” (Millennium Pharmaceuticals, Inc., priority 2012, dated 2017).

These compounds were tested against recombinant human UAE (Homo sapiens (Human), UniProt P22314) (assay: Ubiquitin Activating Enzyme (UAE) HTRF assay, human UAE). Settings: not given.
Sequence of recombinant human UAE (P22314 whole entry): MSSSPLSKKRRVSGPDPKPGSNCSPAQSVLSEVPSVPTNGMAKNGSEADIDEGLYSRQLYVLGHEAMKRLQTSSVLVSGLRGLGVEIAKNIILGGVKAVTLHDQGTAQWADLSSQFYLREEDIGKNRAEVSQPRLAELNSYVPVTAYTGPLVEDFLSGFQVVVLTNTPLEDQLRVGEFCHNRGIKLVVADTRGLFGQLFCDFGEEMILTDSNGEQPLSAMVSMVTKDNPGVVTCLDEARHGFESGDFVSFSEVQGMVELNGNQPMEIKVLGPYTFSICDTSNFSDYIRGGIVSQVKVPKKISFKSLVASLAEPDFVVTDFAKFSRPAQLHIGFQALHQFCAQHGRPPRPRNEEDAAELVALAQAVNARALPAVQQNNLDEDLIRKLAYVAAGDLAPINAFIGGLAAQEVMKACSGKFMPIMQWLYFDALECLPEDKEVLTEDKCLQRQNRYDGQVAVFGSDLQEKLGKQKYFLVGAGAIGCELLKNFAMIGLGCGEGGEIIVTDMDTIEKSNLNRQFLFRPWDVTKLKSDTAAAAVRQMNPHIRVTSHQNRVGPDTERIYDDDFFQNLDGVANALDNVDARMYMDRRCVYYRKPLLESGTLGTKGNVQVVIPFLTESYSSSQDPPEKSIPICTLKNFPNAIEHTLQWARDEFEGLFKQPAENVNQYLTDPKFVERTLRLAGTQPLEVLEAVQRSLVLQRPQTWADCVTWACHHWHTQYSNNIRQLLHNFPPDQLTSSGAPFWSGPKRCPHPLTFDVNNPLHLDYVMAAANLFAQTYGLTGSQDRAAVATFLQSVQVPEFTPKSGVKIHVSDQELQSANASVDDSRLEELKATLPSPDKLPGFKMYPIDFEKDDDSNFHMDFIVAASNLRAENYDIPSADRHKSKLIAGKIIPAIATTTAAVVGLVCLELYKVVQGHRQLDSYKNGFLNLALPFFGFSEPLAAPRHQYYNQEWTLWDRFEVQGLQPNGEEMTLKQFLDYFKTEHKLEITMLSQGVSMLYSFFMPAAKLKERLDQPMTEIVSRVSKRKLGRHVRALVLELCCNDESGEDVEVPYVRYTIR

NS(=O)(=O)OC[C@H]1C[C@@H](Nc2ccnc3cc(-c4ccc5oc6ccccc6c5c4)nn23)[C@H](O)[C@@H]1O (racemic) [Compound I-019, (rac)-((1R,2R,3S,4R)-4-(2-(dibenzo[b,d]furan-2-yl)pyrazolo[1,5-a]pyrimidin-7-ylamino)-2,3-dihydroxycyclopentyl)methyl rel-sulfamate] and NS(=O)(=O)OC[C@H]1C[C@@H](Nc2ccnc3cc(-c4ccc5ccccc5c4)nn23)[C@H](O)[C@@H]1O (racemic) [Compound I-016, (rac)-((1R,2R,3S,4R)-2,3-dihydroxy-4-(2-(naphthalen-2-yl)pyrazolo[1,5-a]pyrimidin-7-ylamino)cyclopentyl)methyl rel-sulfamate] cannot be ordered by IC50: < 10 nM for the first, < 10 nM for the second.

COc1ccc(OC(F)(F)F)cc1-c1cc2nccc(N[C@@H]3C[C@H](COS(N)(=O)=O)[C@@H](O)[C@H]3O)n2n1 (racemic) [Compound I-066, (rac)-((1R,2R,3S,4R)-2,3-Dihydroxy-4-((2-(2-methoxy-5-(trifluoromethoxy)-phenyl)pyrazolo[1,5-a]pyrimidin-7-yl)amino)cyclopentyl)methyl rel-sulfamate] and COc1ccccc1-c1cc2nccc(N[C@@H]3C[C@H](COS(N)(=O)=O)[C@@H](O)[C@H]3O)n2n1 (racemic) [Compound I-072, (rac)-((1R,2R,3S,4R)-2,3-dihydroxy-4-(2-(2-methoyphenyl)pyrazolo[1,5-a]pyrimidin-7-ylamino)cyclopentyl)methyl rel-sulfamate] cannot be ordered by IC50: < 10 nM for the first, < 10 nM for the second.

CCOC(C)(C)c1cccc(-c2cc3nccc(N[C@@H]4C[C@H](COS(N)(=O)=O)[C@@H](O)[C@H]4O)n3n2)c1 (racemic) [Compound I-084, (rac)-((1R,2R,3S,4R)-4-(2-(3-(2-ethoxypropan-2-yl)phenyl)pyrazolo[1,5-a]pyrimidin-7-ylamino)-2,3-dihydroxycyclopentyl)methyl rel-sulfamate] and CC(C)(c1cccc(-c2cc3nccc(N[C@@H]4C[C@H](COS(N)(=O)=O)[C@@H](O)[C@H]4O)n3n2)c1)C(F)(F)F (racemic) [Compound I-058, (rac)-((1R,2R,3S,4R)-2,3-dihydroxy-4-(2-(3-(1,1,1-trifluoro-2-methylpropan-2-yl)phenyl)pyrazolo[1,5-a]pyrimidin-7-ylamino)cyclopentyl)methyl rel-sulfamate] cannot be ordered by IC50: < 10 nM for the first, < 10 nM for the second.

Compared with NS(=O)(=O)OC[C@H]1C[C@@H](Nc2ccnc3cc(-c4ccccc4Oc4ccccc4)nn23)[C@H](O)[C@@H]1O (racemic) [Compound I-068, (rac)-((1R,2R,3S,4R)-2,3-dihydroxy-4-(2-(2-phenoxyphenyl)pyrazolo[1,5-a]pyrimidin-7-ylamino)cyclopentyl)methyl rel-sulfamate], NS(=O)(=O)OC[C@H]1C[C@@H](Nc2ccnc3cc(-c4cccc(-c5ccccc5)c4)nn23)[C@H](O)[C@@H]1O (racemic) [Compound I-003, (rac)((1R,2R,3S,4R)-4-(2-(biphenyl-3-yl)pyrazolo[1,5-a]pyrimidin-7-ylamino)-2,3-dihydroxycyclopentyl)methyl rel-sulfamate] is lower in IC50: 10 to 100 nM for the first, < 10 nM for the second. The second is the more potent here.

First: NS(=O)(=O)OC[C@H]1C[C@@H](Nc2ccnc3cc(-c4cccc(Cc5ccccc5)c4)nn23)[C@H](O)[C@@H]1O (racemic) [Compound I-069, (rac)-((1R,2R,3S,4R)-4-(2-(3-benzylpenyl)pyrazolo[1,5-a]pyrimidin-7-ylamino)-2,3-dihydroxycyclopentyl)methyl rel-sulfamate]
Second: NS(=O)(=O)OC[C@H]1C[C@@H](Nc2ccnc3cc(-c4ccc5ncccc5c4)nn23)[C@H](O)[C@@H]1O (racemic) [Compound I-034, (rac)-((1R,2R,3S,4R)-2,3-dihydroxy-4-(2-(quinolin-6-yl)pyrazolo[1,5-a]pyrimidin-7-ylamino)cyclopentyl)methyl rel-sulfamate]
The IC50 of the first is higher: 10 to 100 nM for the first, < 10 nM for the second.

NS(=O)(=O)OC[C@H]1C[C@@H](Nc2ccnc3cc(-c4cc5ccccc5[nH]4)nn23)[C@H](O)[C@@H]1O (racemic) [Compound I-024, (rac)-((1R,2R,3S,4R)-4-(2-(1H-indol-2-yl)pyrazolo[1,5-a]pyrimidin-7-ylamino)-2,3-dihydroxycyclopentyl)methyl rel-sulfamate] and NS(=O)(=O)OC[C@H]1C[C@@H](Nc2ccnc3cc(-c4cccc5[nH]ccc45)nn23)[C@H](O)[C@@H]1O (racemic) [Compound I-075, (rac)-((1R,2R,3S,4R)-4-(2-(1H-indol-4-yl)pyrazolo[1,5-a]pyrimidin-7-ylamino)-2,3-dihydroxycyclopentyl)methyl rel-sulfamate] cannot be ordered by IC50: < 10 nM for the first, < 10 nM for the second.

CC(C)(C)c1cccc(-c2cc3nccc(N[C@@H]4C[C@H](COS(N)(=O)=O)[C@@H](O)[C@H]4O)n3n2)n1 (racemic) [Compound I-052, (rac)-((1R,2R,3S,4R)-4-(2-(6-tert-butylpyridin-2-yl)pyrazolo[1,5-a]pyrimidin-7-ylamino)-2,3-dihydroxycyclopentyl)methyl rel-sulfamate] and NS(=O)(=O)OC[C@H]1C[C@@H](Nc2ccnc3cc(-c4cccc5ccsc45)nn23)[C@H](O)[C@@H]1O (racemic) [Compound I-045, (rac)-((1R,2R,3S,4R)-4-((2-(Benzo[b]thiophen-7-yl)pyrazolo[1,5-a]pyrimidin-7-yl)amino)-2,3-dihydroxycyclopentyl)methyl rel-sulfamate] cannot be ordered by IC50: < 10 nM for the first, < 10 nM for the second.

Cn1cc(-c2cccc(-c3cc4nccc(N[C@@H]5C[C@H](COS(N)(=O)=O)[C@@H](O)[C@H]5O)n4n3)c2)cn1 (racemic) [Compound I-122, (rac)-[(1R,2R,3S,4R)-2,3-dihydroxy-4-({2-[3-(1-methyl-1H-pyrazol-4-yl)phenyl]pyrazolo[1,5-a]pyrimidin-7-yl}amino)cyclopentyl]methyl rel-sulfamate] and NS(=O)(=O)OC[C@H]1C[C@@H](Nc2ccnc3cc(-c4cccc(C(F)(F)F)c4)nn23)[C@H](O)[C@@H]1O (racemic) [Compound I-007, (rac)-((1R,2R,3S,4R)-2,3-Dihydroxy-4-((2-(3-(trifluoromethyl)phenyl)pyrazolo[1,5-a]pyrimidin-7-yl)amino)cyclopentyl)methyl rel-sulfamate] cannot be ordered by IC50: < 10 nM for the first, < 10 nM for the second.

NS(=O)(=O)OC[C@H]1C[C@@H](Nc2ccnc3cc(-c4ccnc(C(F)(F)F)c4)nn23)[C@H](O)[C@@H]1O (racemic) [Compound I-059, (rac)-((1R,2R,3S,4R)-2,3-dihydroxy-4-(2-(2-(trifluoromethyl)pyridin-4-yl)pyrazolo[1,5-a]pyrimidin-7-ylamino)cyclopentyl)methyl rel-sulfamate] and NS(=O)(=O)OC[C@H]1C[C@@H](Nc2ccnc3cc(-c4ccc(Cl)cc4Cl)nn23)[C@H](O)[C@@H]1O (racemic) [Compound I-013, (rac)-[(1R,2R,3S,4R)-4-{[2-(2,4-dichlorophenyl)pyrazolo[1,5-a]pyrimidin-7-yl]amino}-2,3-dihydroxycylopentyl]methyl rel-sulfamate] fall in the same range of IC50: 10 to 100 nM for the first, 10 to 100 nM for the second.

First: NS(=O)(=O)OC[C@H]1C[C@@H](Nc2cc(Cl)nc3cc(-c4cccc5ccccc45)nn23)[C@H](O)[C@@H]1O (racemic) [Compound I-009, (rac)-((1R,2R,3S,4R)-4-{[5-chloro-2-(1-naphthyl)pyrazolo[1,5-a]pyrimidin-7-yl]amino}-2,3-dihydroxycyclopentyl)methyl rel-sulfamate]
Second: NS(=O)(=O)OC[C@H]1C[C@@H](Nc2ccnc3cc(-c4cccc5c4sc4ccccc45)nn23)[C@H](O)[C@@H]1O (racemic) [Compound I-056, (rac)-((1R,2R,3S,4R)-4-((2-(Dibenzo[b,d]thiophen-4-yl)pyrazolo[1,5-a]pyrimidin-7-yl)amino)-2,3-dihydroxycyclopentyl)methyl rel-sulfamate]
The IC50 of the first is higher: 100 to 1000 nM for the first, < 10 nM for the second.

NS(=O)(=O)OC[C@H]1C[C@@H](Nc2ccnc3cc(-c4cccc(N5CCOCC5)c4)nn23)[C@H](O)[C@@H]1O (racemic) [Compound I-078, (rac)-((1R,2R,3S,4R)-2,3-dihydroxy-4-(2-(3-morpholinophenyl)pyrazolo-[1,5-a]pyrimidin-7-ylamino)cyclopentyl)methyl rel-sulfamate] and NS(=O)(=O)OC[C@H]1C[C@@H](Nc2ccnc3cc(-c4coc5ccccc45)nn23)[C@H](O)[C@@H]1O (racemic) [Compound I-049, (rac)-((1R,2R,3S,4R)-4-(2-(benzofuran-3-yl)pyrazolo[1,5-a]pyrimidin-7-ylamino)-2,3-dihydroxycyclopentyl)methyl rel-sulfamate] cannot be ordered by IC50: < 10 nM for the first, < 10 nM for the second.

Compared with NS(=O)(=O)OC[C@H]1C[C@@H](Nc2c(Cl)cnc3cc(-c4cccc(SC(F)(F)F)c4)nn23)[C@H](O)[C@@H]1O [Compound I-125, (s.e.)-{(1R,2R,3S,4R)-4-[(6-chloro-2-{3-[(trifluoromethyl)sulfanyl]phenyl}pyrazolo[1,5-a]pyrimidin-7-yl)amino]-2,3-dihydroxycyclopentyl}methyl sulfamate], NS(=O)(=O)OC[C@H]1C[C@@H](Nc2ccnc3cc(-c4coc5ccc(Cl)cc45)nn23)[C@H](O)[C@@H]1O (racemic) [Compound I-092, (rac)-((1R,2R,3S,4R)-4-(2-(5-chlorobenzofuran-3-yl)pyrazolo[1,5-a]pyrimidin-7-ylamino)-2,3-dihydroxycyclopentyl)methyl rel-sulfamate] is lower in IC50: 100 to 1000 nM for the first, < 10 nM for the second.

Same assay, conditions: human UAE

COc1ccc(-c2cc3nccc(N[C@@H]4C[C@H](COS(N)(=O)=O)[C@@H](O)[C@H]4O)n3n2)c2ccccc12 [Compound I-106, (s.e.)-((1R,2R,3S,4R)-2,3-dihydroxy-4-(2-(4-methoxynaphthalen-1-yl)pyrazolo[1,5-a]pyrimidin-7-ylamino)cyclopentyl)methyl sulfamate] and NS(=O)(=O)OC[C@H]1C[C@@H](Nc2ccnc3cc(-c4cccc5ccccc45)nn23)[C@H](O)[C@@H]1O [Compound I-098, (s.e.)-((1R,2R,3S,4R)-2,3-dihydroxy-4-{[2-(1-naphthyl)pyrazolo[1,5-a]pyrimidin-7-yl]amino}cyclopentyl)methyl sulfamate] cannot be ordered by IC50: < 10 nM for the first, < 10 nM for the second.

For NS(=O)(=O)OC[C@H]1C[C@@H](Nc2ccnc3cc(-c4cccc5cc(C(F)F)ccc45)nn23)[C@H](O)[C@@H]1O [Compound I-111, (s.e.)-((1R,2R,3S,4R)-4-(2-(6-(difluoromethyl)naphthalen-1-yl)pyrazolo[1,5-a]pyrimidin-7-ylamino)-2,3-dihydroxycyclopentyl)methyl sulfamate], the IC50 was < 10 nM.
